Measurements from patent US9895370B2, “Pharmaceutical composition for preventing or treating of cirrhosis of liver comprising G protein coupled receptor 119 ligand as an active ingredient” (DONGGUK UNIVERSITY INDUSTRY—ACADEMIC COOPERATION FOUNDATION, priority 2015, dated 2018).

Experiments:
[1] = system: cAMP/PKA (cyclic AMP/Protein kinase A); experiment: activation of GPR119 signaling pathway cAMP/PKA, with PKA inhibitor H-89; assay type: cell-based; conditions: FIG. 4a
Procedure: First, when a PKA inhibitor H-89 was treated, a change in action of the GPR119 ligand was examined.

[2] = system: Smad2/Smad3; experiment: TGFβ1-elevated Smad2/Smad3 phosphorylation and nuclear translocation in LX-2; assay type: cell-based, human
Procedure: (§1) A human HSC line (LX-2, Milipore, U.S.A.) was plated in a 6-well plate, and grown to confluency in DMEM supplemented with 1% penicillin-streptomycin (Hyclone, U.S.A.) and 2% fetal bovine serum (Hyclone, U.S.A.) at 37° C. in a 5% CO2 incubator. For a further experiment, the confluent HSC line was incubated in an FBS-free medium, instead of the 2% FBS-added medium.
A whole cell lysate and a nuclear fraction were separated according to a conventional method. More specifically, the whole cell lysate was obtained by lysing cells washed with phosphate buffered saline (PBS) with a lysis buffer [10 mM Tris-HCl (pH 7.1), 100 mM NaCl, 1 mM EDTA, 10% glycerol, 0.5% Triton X-100, 0.5% Nonidet P-40, 1 mM dithiothreitol and 0.5 mM phenylmethylsulfonyl fluoride (PMSF)] at 4° C. for 30 minutes, and centrifuging the resulting solution at 14,000×g for 15 minutes to obtain a supernatant. To obtain the nuclear fraction, a low-osmotic pressure buffer containing 10 mM HEPES (pH 7.9), 10 mM KCl, 0.1 mM EDTA, 1 mM DTT and 0.5 mM PMSF was added and reacted at 4° C. for 10 minutes. Following addition of 10% Nonidet P-40 and vortexing for 10 seconds, the supernatant obtained by centrifugation at 13,000 rpm for 3 minutes was removed, and the remaining precipitate was washed three times with a low-osmotic pressure buffer. The precipitate was mixed with a high-osmotic pressure buffer [20 mM HEPES (pH 7.9), 400 mM NaCl, 1 mM EDTA, 1 mM DTT and 1 mM PMSF] and vortexed again at 4° C. for 10 minutes to induce a reaction for 20 minutes. Following centrifugation at 13,000 rpm for 10 minutes, a supernatant was obtained to be used as a nuclear fraction. A protein concentration was quantified using a protein quantify kit of PRO-MEASURE™ protein measurement solution (iNtRON Biotechnology, South Korea) according to the Bradford assay.
Sodium dodecylsulfate-polyacrylamide gel electrophoresis (SDS-PAGE) was performed using a gel electrophoresis device (Mighty Small SE 250, Hoefer Scientific Instruments, San Francisco) according to the method established by the inventors. […]

[3] = system: human HSC line LX-2; experiment: TGFβ1-inducible collagen I and TGFβ expression in LX-2; assay type: cell-based
Procedure: as §1
Total RNA ([…]) extracted from cells using Trizol and a Maxime RT PreMix Kit (iNtRON Biotechnology, Gyeonggi-do, Korea) was used to obtain cDNA. For RT-PCR, a target gene was amplified by PCR using a Maxime™ PCR PreMix Kit according to the manufacturer's instructions, and subjected to electrophoresis in a 2% agrose gel, thereby identifying the amplified PCR product.
Meanwhile, for real-time RT-qPCR, the synthesized cDNA was assessed in a CFX Connect™ Real-Time PCR Detection System (Bio-Rad Laboratories, CA, USA) instrument using a SYBR green dye (Bio-Rad). The CP value of the gene was calibrated with the CP value of S 18r gene. Also, through a melting curve analysis, specificity of the amplified PCR product was confirmed.
(§2) Sodium dodecylsulfate-polyacrylamide gel electrophoresis (SDS-PAGE) was performed using a gel electrophoresis device (Mighty Small SE 250, Hoefer Scientific Instruments, San Francisco) according to the method established by the inventors. A lysed cell fraction was diluted with a sample dilution buffer [63 mM Tris (pH. 6.8), 10% glycerol, 2% SDS, 0.0013% bromophenol blue, 5% β-mercaptoethanol], and subjected to electrophoresis in an electrode buffer (15 g Tris, 72 g glycerin and 5 g SDS contained in an 1 L solution) using a 8-12% gel. After electrophoresis, the gel was transferred to a nitrocellulose membrane to transfer proteins using an electrophoresis device for transfer in a transfer buffer (25 mM Tris, 192 mM glycerin, 20% v/v methanol (pH. 8.3)] at 40 mA for 3 hours. The nitrocellulose membrane was reacted with first antibodies, reacted with horseradish peroxidase-conjugated goat anti-rabbit IgG and horseradish peroxidase-conjugated goat anti-mouse IgG as secondary antibodies for 1 hour, and visualized using an ECL chemiluminescence system (Amersham, Gaithesberg, Mass.).
A critical cytokine having an influence on the induction of liver fibrosis, TGFβ1, is a potent fibrosis stimulation factor for HSCs. To examine the expression of a liver fibrosis-inducing factor which was increased when the human liver cell line LX-2, cultured by method D was treated with TGFβ1, changes in expression according to the treatment with GPR119 ligands (MBX-2982, GSK1292263) were assessed by the methods described in G and H, thereby observing the effect of the GPR119 ligands.

[4] = system: mouse embryonic fibroblasts (MEFs); experiment: collagen I and α-SMA protein expression in mouse embryonic fibroblasts (western blot); assay type: cell-based; conditions: FIG. 2b
Procedure: as §2

[5] = system: HSC line LX-2; experiment: PDGF-induced HSC proliferation in LX-2; assay type: cell-based, human; conditions: FIG. 5a
Procedure: as §1

[6] = system: AMP-activated protein kinase (AMPK); experiment: AMPK activation (AMPK and ACC phosphorylation) in LX-2; assay type: cell-based, human; conditions: LX-2, time-dependent treatment; FIG. 4b
Procedure: as §1
Sodium dodecylsulfate-polyacrylamide gel electrophoresis (SDS-PAGE) was performed using a gel electrophoresis device (Mighty Small SE 250, Hoefer Scientific Instruments, San Francisco) according to the method established by the inventors. A lysed cell fraction was diluted with a sample dilution buffer [63 mM Tris (pH. 6.8), 10% glycerol, 2% SDS, 0.0013% bromophenol blue, 5% β-mercaptoethanol], and subjected to electrophoresis in an electrode buffer (15 g Tris, 72 g glycerin and 5 g SDS contained in an 1 L solution) using a 8-12% gel. […]

[7] = system: mouse HSCs; experiment: col1A1 mRNA expression in primary cultured mouse HSCs during in vitro culture-induced activation; assay type: cell-based; conditions: treated on day 1, 3 and 5, FIG. 2a
Procedure: HSCs were isolated from a male C57BL/6 mouse, a male GPR119 WT mouse and a GPR119 KO mouse. More specifically, each mouse was anesthetized to perform an abdominal incision, a cannula was inserted into the hepatic portal vein to introduce a gas mixture of 5% CO2 and 95% 02, and then Ca^2+, Mg^2+-free Hank's balanced salt solution was injected into the cannula at 37° C. to remove blood in the liver. Afterward, a 0.1% collagenase type IV (Sigma, U.S.A.) solution was injected. The liver tissue was detached from the body and prepared in a liver cell suspension, and following centrifugation at 1000×g for 10 minutes, a precipitated cell layer was obtained by floating HSCs to isolate through a density gradient method using Nycodenz. The isolated HSCs were cultured in high glucose Dulbecco's Modified Eagle's Medium (DMEM) containing 10% fetal bovine serum, 50 U/ml penicillin and […] streptomycin at 37° C. in 5% CO2.
Total RNA ([…]) extracted from cells using Trizol and a Maxime RT PreMix Kit (iNtRON Biotechnology, Gyeonggi-do, Korea) was used to obtain cDNA. […]
Meanwhile, for real-time RT-qPCR, the synthesized cDNA was assessed in a CFX Connect™ Real-Time PCR Detection System (Bio-Rad Laboratories, CA, USA) instrument using a SYBR green dye (Bio-Rad). […]

[8] = system: p300; experiment: p300 protein and mRNA expression in LX-2; assay type: cell-based, human
Procedure: as §1, §2
Thereafter, in the present invention, the influence of the GPR119 ligand on p300 expression was observed. […] From the result, it was assumed that a decrease in the expression of the p300 protein due to the GPR119 ligand could be caused by proteasomal degradation, and therefore the expression of the p300 protein was observed using a proteasome inhibitor, which is MG132.

[9] = LX-2 treated with TGFβ1, FIGS. 2c, 2d
[10] = LX-2 treated with ligand alone, FIG. 4h

cAMP activation [1]: observed | action on inhibiting collagen I and TGFβ expression when PKA inhibitor H-89 was treated ([1]; with H-89): not offset | AMPK activation (AMPK and ACC phosphorylation) [6]: highly activated
Structure (SMILES): CCc1cnc(N2CCC(c3nc(COc4ccc(-n5cnnn5)cc4)cs3)CC2)nc1 [MBX-2982, 4-((4-(1H-tetrazol-1-yl)phenoxy)methyl)-2-(1-(5-ethylpyrimidin-2-yl)piperidin-4-yl)thiazole]
nuclear translocation of Smad2/Smad3 elevated by TGFβ1 ([2]; LX-2, FIG. 2e): inhibited | phosphorylation of Smad2/Smad3 elevated by TGFβ1 ([2]; LX-2, FIG. 2e): inhibited | inhibitory action on phosphorylation of Smad3 activated by TGFβ1, under AMPK inhibition ([2]; compound C / DN-AMPK, FIG. 4d): partially recovered by AMPK inhibition, but not completely offset | expression of TGFβ1-inducible liver fibrosis inducing factors (collagen I, TGFβ) with compound C / DN-AMPK ([3]; AMPK inhibitor compound C treated, DN-AMPK transduced, FIG. 4c): inhibitory effect | inhibitory effect on collagen I and TGFβ expression under overexpression of Pin1 ([3]; LX-2 transduced with Pin1 adenovirus, TGFβ1, FIG. 5c): reversed | expression of TGFβ1-inducible TGFβ [3, 9]: inhibited | expression of TGFβ1-inducible collagen I [3, 9]: inhibited | collagen I expression [4]: inhibited | α-SMA expression [4]: inhibited | HSC proliferation induced by PDGF [5]: inhibited | mRNA expression of collagen col1A1 [7]: considerably inhibited | expression of the p300 protein [8, 10]: reduced depending on the concentration | mRNA expression of p300 [8, 10]: no influence | expression of the p300 protein decreased by ligand, with proteasome inhibitor MG132 ([8]; with MG132 treatment, FIG. 4i): recovered
